Experimental data: ChEMBL document CHEMBL4706736, “Modulating Androgen Receptor in the Therapeutic Intervention for Prostate Cancer and Kennedy's Disease” (2021)
Where a SMILES comes first, the peptide text is derived from it. [ ]: non-standard residue; d: D form. The star is where a group is joined. X1 = O=C(COc1c(-c2csc(N3CCOCC3)n2)ccc(F)c1F)NCCCCCCN*; X4 = O=C(COc1c(-c2csc(N3CCOCC3)n2)ccc(F)c1F)NCCCCN*; X2 = Fc1ccc(-c2csc(N3CCOCC3)n2)c(OCCOCCOCCN*)c1F; X3 = O=C(NCCCCCCN*)c1cccc2sc(N3CCOCC3)nc12; Dip = N[C@H](C(=O)O)C(c1ccccc1)c1ccccc1; Chg = N[C@H](C(=O)O)C1CCCCC1; NMeA = CN[C@@H](C)C(=O)O

System: CWR22R
Test: Antiproliferative activity against human 22Rv1 cells assessed as reduction in cell viability at 10 uM incubated for 48 hrs by automated cell counting analysis relative to control
Type: functional

SMILES | inhibition at 10 µM
CN[C@@H](C)C(=O)N[C@H](C(=O)N1Cc2cc(OCCOCCOc3c(-c4csc(N5CCOCC5)n4)ccc(F)c3F)ccc2C[C@H]1C(=O)N[C@@H]1CCCc2ccccc21)C(C)(C)C | > 50%
O=C1CCC(N2C(=O)c3cccc(NCCCCCCNC(=O)c4cn(-c5csc(N6CCOCC6)n5)cn4)c3C2=O)C(=O)N1 (stereo unspecified) | 0%
Cc1ncsc1-c1ccc([C@H](C)NC(=O)[C@@H]2C[C@@H](O)CN2C(=O)[C@@H](NC(=O)CCCCNC(=O)COc2c(-c3csc(N4CCOCC4)n3)ccc(F)c2F)C(C)(C)C)cc1 | < 50%
NCCCCCCCCCCNc1cccc2c1C(=O)N(C1CCC(=O)NC1=O)C2=O (stereo unspecified) | < 50%
COc1cc(C(=O)NCCOCCOCCOc2c(-c3csc(N4CCOCC4)n3)ccc(F)c2F)ccc1NC(=O)[C@@H]1N[C@@H](CC(C)(C)C)[C@](C#N)(c2ccc(Cl)cc2F)[C@H]1c1cccc(Cl)c1F | > 50%
CN[C@@H](C)C(=O)N[C@H](C(=O)N1Cc2cc(OCCOCCOCCOc3c(-c4csc(N5CCOCC5)n4)ccc(F)c3F)ccc2C[C@H]1C(=O)N[C@@H]1CCCc2ccccc21)C(C)(C)C | > 50%
COc1cc(C(=O)NCCCCNC(=O)COc2c(-c3csc(N4CCOCC4)n3)ccc(F)c2F)ccc1NC(=O)[C@@H]1N[C@@H](CC(C)(C)C)[C@](C#N)(c2ccc(Cl)cc2F)[C@H]1c1cccc(Cl)c1F | > 50%
CN[C@@H](C)C(=O)N[C@H](C(=O)N1CCC[C@H]1C(=O)N[C@H](C(=O)NCCCCCCNC(=O)COc1c(-c2csc(N3CCOCC3)n2)ccc(F)c1F)C(c1ccccc1)c1ccccc1)C1CCCCC1 (H-[NMeA][Chg]P[Dip]-X1) | > 50%
CN[C@@H](C)C(=O)N[C@H](C(=O)N1CCC[C@H]1C(=O)N[C@H](C(=O)NCCOCCOCCOc1c(-c2csc(N3CCOCC3)n2)ccc(F)c1F)C(c1ccccc1)c1ccccc1)C1CCCCC1 (H-[NMeA][Chg]P[Dip]-X2) | > 50%
CN[C@@H](C)C(=O)N[C@H](C(=O)N1CCC[C@H]1C(=O)N[C@H](C(=O)NCCCCCCNC(=O)c1cccc2sc(N3CCOCC3)nc12)C(c1ccccc1)c1ccccc1)C1CCCCC1 (H-[NMeA][Chg]P[Dip]-X3) | > 50%
CN[C@@H](C)C(=O)N[C@H](C(=O)N1CCC[C@H]1C(=O)N[C@H](C(=O)NCCCCNC(=O)COc1c(-c2csc(N3CCOCC3)n2)ccc(F)c1F)C(c1ccccc1)c1ccccc1)C1CCCCC1 (H-[NMeA][Chg]P[Dip]-X4) | > 50%
